What was measured:
taste panelists = experiment: Taste panel rating of sweetness and licorice taste of 5% sucrose solutions; type: in vivo, human; conditions: scale 0 to 10, no enhancer 5.0
Procedure: A test compound, (2R,3R)-3-acetoxy-5,7,4′-trihydroxyflavanone (A01), was tested in comparison to naringenin for its sweetness enhancement of a 5% (w/w) aqueous solution of sucrose. Taste panelists were asked to taste the following 5% sucrose solutions in Henniez water and rate their sweetness on a scale from 0 to 10, and to rate the presence of any licorice taste in the sample on a scale from 0 to 10.
The test compound A01 was tested in comparison to other sweetness enhancers in a similar test to that set forth in Example 1. The comparative compounds are taxifolin 3-O-acetate (A02), and ampelopsin 3-O-acetate (A03).

panelists = experiment: Sweetener replacement test: panel choice between beverages (rebaudioside M, sucralose); type: in vivo, human; conditions: for Panelists (of 45) who selected the beverage with test compound: statistical equivalence
Source text: In one test, 45 panelists were asked to select between a beverage sweetened with 450 ppm rebaudioside M and a beverage with 300 ppm rebaudioside M and 12 ppm test compound A01. Of the 45 panelists, 23 selected the former, and 22 selected the latter, which is a statistical equivalence. […] In another test, 45 panelists were asked to select between a beverage sweetened with 160 ppm sucralose and a beverage with 120 ppm sucralose and 12 ppm test compound A01. Of the 45 panelists, 22 selected the former, and 23 selected the latter, which is a statistical equivalence.

[1] = +20 ppm in 5% sucrose solution (Table 2)

Compound | Sweetness (0-10) (taste panelists; +5 ppm in 5% (w/w) sucrose solution in Henniez water) | Sweetness (0-10) (taste panelists; +10 ppm in 5% (w/w) sucrose solution in Henniez water) | Sweetness (0-10) (taste panelists; [1]) | Reduction in concentration of sucralose permitted (panelists; 12 ppm test compound, 160 ppm to 120 ppm sucralose) | Reduction in concentration of rebaudioside M permitted (panelists; 12 ppm test compound, 450 ppm to 300 ppm rebaudioside M) | Panelists (of 45) who selected the beverage with test compound (panelists; 120 ppm sucralose + 12 ppm A01 versus 160 ppm sucralose) | Panelists (of 45) who selected the beverage with test compound (panelists; 300 ppm rebaudioside M + 12 ppm A01 versus 450 ppm rebaudioside M) | Sweetness (0-10) (taste panelists; +50 ppm in 5% (w/w) sucrose solution in Henniez water)
CC(=O)O[C@H]1C(=O)c2c(O)cc(O)cc2O[C@@H]1c1ccc(O)cc1 [A01, (2R,3R)-3-acetoxy-5,7,4′-trihydroxyflavanone] | 7.0 | 8.0 | 8.8 | 25% | 33% | 23 | 22 | 
CC(=O)OC1C(=O)c2c(O)cc(O)cc2OC1c1cc(O)c(O)c(O)c1 (stereo not drawn) [A03, ampelopsin 3-O-acetate, reference compound] |  |  | 5.1 |  |  |  |  | 
O=C1C[C@@H](c2ccc(O)cc2)Oc2cc(O)cc(O)c21 [naringenin, reference compound] |  |  |  |  |  |  |  | 5.8

— patent US12635718B2, “Flavanone derivatives and their use as sweetness enhancers” (Firmenich SA, priority 2019, dated 2026)
